Measured values taken from patent US6281209A, “Fungicidal alkoximinomethyldioxazine derivatives” (Bayer Aktiengesellschaft, priority 1997, dated 2001).
Like-named read-outs stand apart in the source and are kept apart here.

Tests used:
[1] = system: Venturia inaequalis; assay: Venturia Test (Apple)/Protective; assay type: in vivo; settings: protective, 10 g/ha, evaluated 12 days after inoculation
Method: Venturia Test (Apple)/Protective Solvent: 47 parts by weight of acetone Emulsifier: 3 parts by weight of alkylaryl polyglycol ether To produce a suitable preparation of active compound, 1 part by weight of active compound is mixed with the stated amounts of solvent and emulsifier, and the concentrate is diluted with water to the desired concentration. To test for protective activity, young plants are sprayed with the preparation of active compound at the stated application rate. After the spray coating has dried on, the plants are inoculated with an aqueous conidia suspension of the causative organism of apple scab Venturia inaequalis and then remain in an incubation cabin at approximately 20° C. 100% relative atmospheric humidity for 1 day. The plants are then placed in the greenhouse at approximately 21° C. and a relative atmospheric humidity of approximately 90%.

[2] = system: Plasmopara viticola; assay: Plasmopara Test (Grapevine)/Protective; assay type: in vivo; settings: protective, 100 g/ha, evaluated 6 days after inoculation
Method: Plasmopara Test (Grapevine)/Protective Solvent: 47 parts by weight of acetone Emulsifier: 3 parts by weight of alkylaryl polyglycol ether To produce a suitable preparation of active compound, 1 part by weight of active compound is mixed with the stated amounts of solvent and emulsifier, and the concentrate is diluted with water to the desired concentration. To test for protective activity, the young plants are sprayed with the preparation of active compound at the stated application rate. After the spray coating has dried on, the plants are inoculated with an aqueous spore suspension of Plasmopara viticola and then remain in an incubation cabin at approximately 20° C. and 100% relative atmospheric humidity for 1 day. The plants are subsequently placed in a greenhouse at approximately 21° C. and approximately 90% relative atmospheric humidity for 5 days. The plants are then moistened and placed in an incubation cabin for 1 day.

[3] = system: Pyricularia oryzae; assay type: in vivo; settings: rice, protective, 750 g/ha, contact time of one day, evaluated 4 days after inoculation
[4] = system: Leptosphaeria nodorum; assay: Leptosphaeria Nodorum Test (Wheat)/Protective; assay type: in vivo; settings: protective, 25 g/ha, evaluated 10 days after inoculation
Method: Leptosphaeria Nodorum Test (Wheat)/Protective Solvent: 10 parts by weight of N-methyl-pyrrolidone Emulsifier: 0.6 parts by weight of alkylaryl polyglycol ether To produce a suitable preparation of active compound, 1 part by weight of active compound is mixed with the stated amounts of solvent and emulsifier, and the concentrate is diluted with water to the desired concentration. To test for protective activity, young plants are sprayed with the preparation of active compound at the stated application rate. After the spray coating has dried on, the plants are sprayed with a spore suspension of Leptosphaeria nodorum. The plants remain in an incubation cabin at 20° C. and 100% relative atmospheric humidity for 48 hours.

[5] = phys. data (logP), Table 1; assay type: physicochemical

SMILES | logP ([5]; read-out: logP) | further results
CON=C(C1=NOCCO1)c1ccccc1OC(=O)C=C(C)c1cccc(C(F)(F)F)c1 [Example 1, 2-[(5,6-dihydro-[1,4,2]dioxazin-3-yl)-methoxyiminomethyl]-phenyl 3-(3-trifluoromethylphenyl)-but-2-enoate] | – | efficacy in comparison with the untreated controls [1]: up to 100%; efficacy in comparison with the untreated control [2]: up to 100%
CON=C(C1=NOCCO1)c1ccccc1OC(=O)C=C(C)COc1cccc(C(F)(F)F)c1 [Example 3] | – | efficacy in comparison with the untreated control [3]: more than 80%
CON=C(C1=NOCCO1)c1ccccc1OC(=O)C=C(C)c1cccc(Br)c1 [Example 4] | 3.72 | efficacy in comparison with the untreated controls [1]: up to 100%; efficacy in comparison with the untreated control [4]: 70%; efficacy in comparison with the untreated control [2]: up to 100%
CON=C(C1=NOCCO1)c1ccccc1OC(=O)C=C(C)c1cccc(OC)c1 [Example 5] | 3.22 | efficacy in comparison with the untreated controls [1]: up to 100%; efficacy in comparison with the untreated control [2]: up to 100%
CON=C(C1=NOCCO1)c1ccccc1OC(=O)C=C(C)c1ccccc1 [Example 6] | 3.22 | efficacy in comparison with the untreated controls [1]: up to 100%; efficacy in comparison with the untreated control [2]: up to 100%
CON=C(C1=NOCCO1)c1ccccc1OC(=O)C=C(C)c1ccc(C(F)(F)F)cc1 [Example 7] | 3.81 | efficacy in comparison with the untreated controls [1]: up to 100%; efficacy in comparison with the untreated control [3]: more than 80%
CON=C(C1=NOCCO1)c1ccccc1OC(=O)C=C(C)c1ccc(C)cc1 [Example 8] | 3.58 | efficacy in comparison with the untreated controls [1]: up to 100%; efficacy in comparison with the untreated control [3]: more than 80%; efficacy in comparison with the untreated control [2]: up to 100%
CCc1cccc(C(C)=CC(=O)Oc2ccccc2C(=NOC)C2=NOCCO2)c1 [Example 9] | 3.91 | efficacy in comparison with the untreated controls [1]: up to 100%; efficacy in comparison with the untreated control [3]: more than 80%; efficacy in comparison with the untreated control [2]: up to 100%
CON=C(C1=NOCCO1)c1ccccc1OC(=O)C=C(C)c1ccc(Br)cc1 [Example 10] | 3.78 | –
CCOc1ccc(C(C)=CC(=O)Oc2ccccc2C(=NOC)C2=NOCCO2)cc1 [Example 12] | 3.57 | –
CON=C(C1=NOCCO1)c1ccccc1OC(=O)C=C(C)c1ccc(C)cc1 [Example 13] | – | logP [5]: 4.06
CON=C(C1=NOCCO1)c1ccccc1OC(=O)C=C(C)c1cc(Cl)ccc1Cl [Example 14] | 3.93 | –
CON=C(C1=NOCCO1)c1ccccc1OC(=O)C=C(C)c1cccc(C)c1 [Example 17] | 3.58 | –
CON=C(C1=NOCCO1)c1ccccc1OC(=O)C=C(C)c1cccc(Cl)c1 [Example 19] | 3.64 | –
CON=C(C1=NOCCO1)c1ccccc1OC(=O)C=C(C)c1ccc(F)cc1 [Example 20] | 3.28 | –
CON=C(C1=NOCCO1)c1ccccc1OC(=O)C=C(C)c1ccc(OC)cc1 [Example 21] | 3.19 | –
CON=C(C1=NOCC(C)O1)c1ccccc1OC(=O)C=C(C)c1ccc(C(F)(F)F)cc1 (stereo not drawn) [Example 22] | 4.02 | –
CON=C(C1=NOCC(C)(C)O1)c1ccccc1OC(=O)C=C(C)c1ccc(C(F)(F)F)cc1 [Example 23] | 4.23 | –
CON=C(C1=NOCCO1)c1ccccc1OC(=O)C=C(C)c1ccccc1OC(C)C [Example 24] | 3.87 | –
CCOc1ccccc1C(C)=CC(=O)Oc1ccccc1C(=NOC)C1=NOCCO1 [Example 25] | 3.63 | –
CCCOc1ccccc1C(C)=CC(=O)Oc1ccccc1C(=NOC)C1=NOCCO1 [Example 26] | 3.98 | –
CON=C(C1=NOCCO1)c1ccccc1OC(=O)C=C(C)c1ccccc1F [Example 29] | 3.25 | –
CON=C(C1=NOCCO1)c1cc(C)ccc1OC(=O)C=C(C)c1cccc(Cl)c1 [Example 32] | 3.9 | –
CON=C(C1=NOCCO1)c1ccccc1OC(=O)C=C(C)c1ccccc1OC [Example 42] | 3.28 | –
CON=C(C1=NOCCO1)c1ccccc1OC(=O)C=C(C)c1ccccc1C(F)(F)F [Example 43] | 3.58 | –
CON=C(C1=NOCCO1)c1ccccc1OC(=O)C=C(C)c1cc(C)ccc1C [Example 44] | 3.85 | –
CON=C(C1=NOCCO1)c1ccccc1OC(=O)C=C(C)c1ccccc1Br [Example 45] | 3.58 | –
CON=C(C1=NOCCO1)c1ccccc1OC(=O)C=C(C)c1ccc(Cl)nc1 [Example 46] | 2.75 | –
CON=C(C1=NOCCO1)c1ccccc1OC(=O)C=C(C)c1ccccc1C [Example 47] | 3.48 | –
